The source of these data is the supplement of paper PMC10949913.

SMILES strings stand for the structures.

Holding throughout (conditions): 48 h
In test [1] the test system is NCI-H295R. Put plainly: AC50 viability; higher = less potent. The gist of the method:
(§1)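 Library compounds were tested at 11 concentrations against three adrenocortical carcinoma cell lines in 1,536-well plates. CellTiter-Glo luminescence was read after 48 h and normalised per plate to vehicle and empty-well controls. Only inhibitory or non-responding curve classes from fitted concentration-response curves contributed AC50 and area under the curve.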

Test [2] concerns CU-ACC1. Put plainly: AC50 viability; higher = less potent. In short, it runs like this:
as §1

Test [3] deals with CU-ACC2. Put plainly: AC50 viability; higher = less potent. The gist of the method:
as §1

Test [4] has as its system NCI-H295R. Put plainly: area under concentration-response curve (viability) (AUC (a.u.)); higher = less active. In short, it runs like this:
as §1

Test [5] concerns CU-ACC1. The test is described as above. The gist of the method: as §1
In test [6] the test system is CU-ACC2. The description is as above. In short, it runs like this:
as §1

For `CCn1nnc2c(N3CCOCC3)nc(-c3ccc(NC(=O)Nc4ccc(C(=O)N5CCN(C)CC5)cc4)cc3)nc21`, the AC50 viability was determined as 5.9 µM with NCI-H295R [1], 1.18 µM in the test with CU-ACC1 [2] and 0.468 µM in the test on CU-ACC2 [3]. For the same compound, the “area under concentration-response curve” value in the test with NCI-H295R [4] came out at 453; with CU-ACC1 [5] it was 357; with CU-ACC2 [6], 434.

Consider `CNC(=O)CCc1cc(-c2ccc(-c3ccc(C(F)(F)F)cc3)cc2)n(-c2ccc(N3CCNCC3)cc2)n1`, for which the figures for the AC50 viability with NCI-H295R [1], in the test with CU-ACC1 [2] and in the test on CU-ACC2 [3] were 8.33 µM, 4.68 µM and 7.42 µM, respectively. In addition, the entries for the “area under concentration-response curve” value in the test with NCI-H295R [4], with CU-ACC1 [5] and with CU-ACC2 [6] were 487, 432 and 476, respectively.

Take `CNCCCC12CCC(c3ccccc31)c1ccccc12`: the values for the AC50 viability in the test on NCI-H295R [1], in the test with CU-ACC1 [2] and in the test with CU-ACC2 [3] were 16.6 µM, 23.5 µM and 23.5 µM, respectively. Also, the “area under concentration-response curve” value in the test with NCI-H295R [4] is 464; with CU-ACC1 [5], 488; in the test with CU-ACC2 [6], 564.

Consider `CCc1cnn2c(NCc3ccc[n+]([O-])c3)cc(N3CCCC[C@H]3CCO)nc12`, for which the AC50 viability in the test on NCI-H295R [1] is 0.00417 µM; with CU-ACC1 [2] it was 0.00263 µM; with CU-ACC2 [3] it was 0.0059 µM. The “area under concentration-response curve” value was 158 in the test on NCI-H295R [4], 177 in the test with CU-ACC1 [5] and 167 with CU-ACC2 [6].

Regarding `CC(C)c1c2cc(-c3ccnc(N[C@H]4CC[C@H](NC5CCOCC5)CC4)n3)ccc2nn1C`, the AC50 viability with NCI-H295R [1] amounted to 0.417 µM; with CU-ACC1 [2] it was 0.372 µM; with CU-ACC2 [3], 0.263 µM. The entries for the “area under concentration-response curve” value with NCI-H295R [4], with CU-ACC1 [5] and in the test on CU-ACC2 [6] were 380, 333 and 376, respectively.

For `Clc1ccc(C2(c3ccc(-c4cn[nH]c4)cc3)CCNCC2)cc1`, the AC50 viability came out at 18.6 µM in the test on NCI-H295R [1], 18.6 µM in the test on CU-ACC1 [2] and 23.5 µM in the test with CU-ACC2 [3]. Besides, the results for the “area under concentration-response curve” value in the test with NCI-H295R [4], with CU-ACC1 [5] and in the test on CU-ACC2 [6] were 399, 419 and 423, respectively.

As for `Cc1ccc(-c2cc(C(F)(F)F)nn2-c2ccc([S+](N)(=O)[O-])cc2)cc1`, the values for the AC50 viability in the test on NCI-H295R [1], in the test on CU-ACC1 [2] and with CU-ACC2 [3] were 9.34 µM, 10.5 µM and 10.5 µM, respectively. The “area under concentration-response curve” value in the test on NCI-H295R [4] amounted to 271; in the test on CU-ACC1 [5] it was 268; in the test on CU-ACC2 [6], 261.

On to `O=C(/C=C/c1ccc2ccc(C(F)(F)F)cc2n1)c1ccncc1`, for which the values for the AC50 viability in the test on NCI-H295R [1], with CU-ACC1 [2] and in the test on CU-ACC2 [3] were 3.72 µM, 3.72 µM and 2.95 µM, respectively. The “area under concentration-response curve” value with NCI-H295R [4] was 402; with CU-ACC1 [5], 365; with CU-ACC2 [6] it was 439.

On to `ClC/1=C(NCCN2CCOCC2)/C(=O)C3=C(C=CC=N3)C1=O`, for which the AC50 viability is 5.9 µM with NCI-H295R [1], 2.35 µM with CU-ACC1 [2] and 8.33 µM in the test on CU-ACC2 [3]. In addition, the “area under concentration-response curve” value is 440 in the test on NCI-H295R [4], 387 with CU-ACC1 [5] and 409 in the test with CU-ACC2 [6].

Turning to `CCC(C1CCC(C)C(O1)C(C)C(O)C(C)C(=O)C(CC)C2OC\3(O[C@]4(CC[C@@](C)(O4)C5CC[C@@](O)(CC)C(C)O5)C(O)\C=C3)C(C)CC2C)C([O-])=O` (stereo not given in full), the AC50 viability in the test on NCI-H295R [1] turned out to be 8.33 µM; with CU-ACC1 [2] it was 5.25 µM; in the test on CU-ACC2 [3] it was 5.9 µM. In addition, the entries for the “area under concentration-response curve” value in the test with NCI-H295R [4], with CU-ACC1 [5] and with CU-ACC2 [6] were 456, 291 and 473, respectively.

In the case of `COc1cccc2c1C(=O)c1c(O)c3c(c(O)c1C2=O)C[C@@](O)(C(C)=O)C[C@@H]3O[C@H]1C[C@H](N)[C@H](O)[C@H](C)O1`, the values for the AC50 viability in the test with NCI-H295R [1], in the test with CU-ACC1 [2] and in the test with CU-ACC2 [3] were 4.68 µM, 2.95 µM and 2.35 µM, respectively. Besides, the “area under concentration-response curve” value was 369 with NCI-H295R [4], 305 with CU-ACC1 [5] and 350 with CU-ACC2 [6].

Turning to `CCCCOc1c(C(=O)c2c(F)cc(C)cc2F)cnc2[nH]ncc12`, the AC50 viability in the test on NCI-H295R [1] was found to be 2.35 µM; in the test on CU-ACC1 [2] it was 1.48 µM; with CU-ACC2 [3] it was 2.09 µM. Moreover, the “area under concentration-response curve” value in the test with NCI-H295R [4] worked out at 432; in the test with CU-ACC1 [5], 419; in the test with CU-ACC2 [6], 407.

For the compound `O=C(NO)c1cnc(NC2(c3ccccc3)CC2)nc1`, the values for the AC50 viability in the test with NCI-H295R [1], in the test on CU-ACC1 [2] and in the test with CU-ACC2 [3] were 5.25 µM, 11.8 µM and 16.6 µM, respectively. Further, the “area under concentration-response curve” value in the test with NCI-H295R [4] was 465; with CU-ACC1 [5], 423; in the test on CU-ACC2 [6], 499.

Regarding `CCN1CCN(Cc2ccc(NC(=O)Nc3ccc(Oc4cc(NC)ncn4)cc3)cc2C(F)(F)F)CC1`, the results for the AC50 viability in the test on NCI-H295R [1], in the test on CU-ACC1 [2] and with CU-ACC2 [3] were 11.8 µM, 9.34 µM and 10.5 µM, respectively. The results for the “area under concentration-response curve” value with NCI-H295R [4], in the test on CU-ACC1 [5] and with CU-ACC2 [6] were 494, 436 and 526, respectively.

On to `CC(C)[C@@H](N(CCCN)C(=O)C1=CC=C(C)C=C1)C/2=C(\CC3=CC=CC=C3)C(=O)C4=C(O2)C=C(Cl)C=C4`, for which the AC50 viability in the test with NCI-H295R [1] worked out at 2.35 µM; in the test on CU-ACC1 [2], 13.2 µM; in the test with CU-ACC2 [3] it was 26.3 µM. The “area under concentration-response curve” value in the test on NCI-H295R [4] was 359; with CU-ACC1 [5], 448; in the test with CU-ACC2 [6], 565.

With `Oc1ccc(-c2ccc(-c3cc(Nc4cccc(CNC5CC5)c4)[nH]n3)cc2)c(O)c1`, the AC50 viability in the test with NCI-H295R [1] is 18.6 µM; in the test on CU-ACC1 [2], 14.8 µM; in the test with CU-ACC2 [3], 10.5 µM. Also, the “area under concentration-response curve” value with NCI-H295R [4] worked out at 531; in the test with CU-ACC1 [5], 498; in the test with CU-ACC2 [6], 556.

Take `CN(C)c1ccc(C(=O)NCCCCCCC(=O)NO)cc1`: the AC50 viability in the test with NCI-H295R [1] is 5.25 µM; in the test with CU-ACC1 [2], 4.68 µM; in the test on CU-ACC2 [3], 4.17 µM. Besides, the “area under concentration-response curve” value in the test with NCI-H295R [4] worked out at 444; with CU-ACC1 [5], 348; in the test on CU-ACC2 [6], 450.

Turning to `COc1ccc(Nc2cc(-c3cnc(N)nc3)nc(N3CCOCC3)n2)cn1`, the AC50 viability with NCI-H295R [1] was 1.66 µM; in the test with CU-ACC1 [2], 1.05 µM; in the test with CU-ACC2 [3], 1.05 µM. The “area under concentration-response curve” value was found to be 392 in the test with NCI-H295R [4], 413 in the test with CU-ACC1 [5] and 493 in the test on CU-ACC2 [6].

In the case of `C[C@@H]1CN(CC(=O)N2CC(C)(C)c3ncc(Cc4ccc(F)cc4)cc32)[C@@H](CN2CCOC[C@H]2C)CN1`, the values for the AC50 viability in the test on NCI-H295R [1], in the test on CU-ACC1 [2] and in the test on CU-ACC2 [3] were 20.9 µM, 18.6 µM and 1.32 µM, respectively. The “area under concentration-response curve” value with NCI-H295R [4] worked out at 462; with CU-ACC1 [5] it was 449; in the test with CU-ACC2 [6], 451.

Regarding `COc1ccc(F)c(F)c1C(=O)c1cnc(NC2CCN([S+](C)(=O)[O-])CC2)nc1N`, the figures for the AC50 viability in the test on NCI-H295R [1], in the test on CU-ACC1 [2] and in the test with CU-ACC2 [3] were 4.68 µM, 2.35 µM and 1.48 µM, respectively. Besides, the “area under concentration-response curve” value in the test with NCI-H295R [4] amounted to 435; with CU-ACC1 [5] it was 409; in the test on CU-ACC2 [6], 364.
